In patent US20240148821A1, “PHARMACEUTICAL USE OF CYCLIC PEPTIDE COMPOUND” (CHUGAI SEIYAKU KABUSHIKI KAISHA, priority 2021, published 2024):
Numbered stars: 1 amine (or outer) side, 2 acyl side, 3 side chain; on linkers, the order of the positions; unused ones are H or OH. Bridge positions count the residues as written; N and C are the ends. Square brackets hold non-standard residues; d marks the D form. Peptide text beside a SMILES is read from it. * marks the point of attachment. hPhe(3,5-F2-4-CF3) = N[C@@H](CCc1cc(F)c(C(F)(F)F)c(F)c1)C(=O)O; hPhe(3-Cl-4-CF3) = N[C@@H](CCc1ccc(C(F)(F)F)c(Cl)c1)C(=O)O; hPhe(3-F,4-CF3) = N[C@@H](CCc1ccc(C(F)(F)F)c(F)c1)C(=O)O; X20 = Cc1cncc(C[C@@H](C(=O)[*:2])N(C)[*:1])c1; NMePhe(4-Cl) = CN[C@@H](Cc1ccc(Cl)cc1)C(=O)O; NMePhe(3-Me) = CN[C@@H](Cc1cccc(C)c1)C(=O)O; NMePhe(4-Me) = CN[C@@H](Cc1ccc(C)cc1)C(=O)O; NMeNle(6-CHF2) = CN[C@@H](CCCCC(F)F)C(=O)O; NMedβ3hAla = C[C@H](CC(=O)[*:2])N(C)[*:1]; NMeGly(cPent) = CN[C@H](C(=O)O)C1CCCC1; dβ3hPip = O=C(C[C@H]1CCCCN1[*:1])[*:2]; NMeGly(cBu) = CN[C@H](C(=O)O)C1CCC1; NMeCha = CN[C@@H](CC1CCCCC1)C(=O)O; Hyp = O=C(O)[C@@H]1C[C@@H](O)CN1; NMeAhp(2) = CCCCC[C@H](NC)C(=O)O; NMeChg = CN[C@H](C(=O)O)C1CCCCC1; NMeF = CN[C@@H](Cc1ccccc1)C(=O)O; NMeI = CC[C@H](C)[C@H](NC)C(=O)O; NMeD = CN[C@@H](CC(=O)O)C(=O)O; NMeL = CN[C@@H](CC(C)C)C(=O)O; Chg = N[C@H](C(=O)O)C1CCCCC1; NMeNva = CCC[C@H](NC)C(=O)O; NMeV = CN[C@H](C(=O)O)C(C)C; d(β3hA) = C[C@@H](N)CC(=O)O; Azetidin(1-yl) = C1CN(*)C1; NMeA = CN[C@@H](C)C(=O)O; NMeAib = CNC(C)(C)C(=O)O; Piperidide = C1CCN(*)CC1; Pyrrolidide = C1CCN(*)C1; Ac5c = NC1(C(=O)O)CCCC1; Aze = O=C(O)[C@@H]1CCN1; NEtG = CCNCC(=O)O; Sar = CNCC(=O)O

Assays:
[1] = test system: Human pancreatic cancer cell line AsPC-1 (G12D mutation Kras); assay: AsPC-1 cell growth inhibition (AsPC-1 CGI); format: cell-based; settings: read-out: AsPC-1 cell growth inhibition, 50% growth inhibitory concentration (IC50 value); 96 hours, CellTiter-Glo, values classified in ranges
[2] = molecular target: protein-protein interaction between Kras and SOS1 (biotin-tagged human Kras loaded with GDP, His-tagged human SOS1) (Homo sapiens (Human), UniProt P01116, G12D); assay: Protein-protein interaction inhibition between Kras and SOS1 (KrasG12D-SOS PPI) using AlphaScreen; format: biochemical; settings: AlphaScreen; biotin-tagged human Kras loaded with GDP, His-tagged human SOS1; read-out: KRAS G12D-SOS PPI IC50;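 note: kras produced in E. coli, Ni-coupled donor beads and streptavidin acceptor beads, excitation 680 nm with emission detected at 520–620 nm via singlet oxygen transfer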

SMILES	IC50 [1]	IC50 [2]
CCCCC[C@H]1C(=O)N[C@@H]([C@@H](C)CC)C(=O)N[C@@H](C)C(=O)N2CC[C@H]2C(=O)N(C)[C@@H](Cc2ccc(C)cc2)C(=O)N(C)CC(=O)N[C@@H](CCc2ccc(C(F)(F)F)c(Cl)c2)C(=O)N2CCC[C@H]2C(=O)NC2(CCCC2)C(=O)N(C)[C@@H](C2CCCC2)C(=O)N(C)[C@H](C(=O)N(C)C)CC(=O)N1C [Compound 1059] ([NMeAhp(2)]IA[Aze][NMePhe(4-Me)][Sar][hPhe(3-Cl-4-CF3)]P[Ac5c][NMeGly(cPent)][NMeD]-NMe2; lactam N-11)	≤ 20 nM	0.64 nM
CC[C@H](C)[C@@H]1NC(=O)[C@H](CC(C)C)N(C)C(=O)C[C@@H](C(=O)N2CCC2)N(C)C(=O)[C@H](C2CCCC2)N(C)C(=O)C2(CCCC2)NC(=O)[C@@H]2CCCN2C(=O)[C@H](CCc2cc(F)c(C(F)(F)F)c(F)c2)NC(=O)CN(C)C(=O)[C@H](CC2CCCCC2)N(C)C(=O)[C@@H]2CCN2C(=O)[C@H](C)N(C)C1=O [Compound 1070] ([NMeL]I[NMeA][Aze][NMeCha][Sar][hPhe(3,5-F2-4-CF3)]P[Ac5c][NMeGly(cPent)][NMeD]-{Azetidin(1-yl)}; lactam N-11)	≤ 20 nM	0.91 nM
CC[C@H](C)[C@@H]1NC(=O)[C@H](CC(C)C)N(C)C(=O)C[C@@H](C)N(C)C(=O)[C@H](CC(C)C)NC(=O)C(C)(C)N(C)C(=O)[C@H](CC(C)C)NC(=O)[C@H](CCc2ccc(C(F)(F)F)c(Cl)c2)NC(=O)CN(C)C(=O)[C@H](CC2CCCCC2)N(C)C(=O)CN(C)C(=O)CN(C)C1=O [Compound 1076] (cyclo(I[Sar][Sar][NMeCha][Sar][hPhe(3-Cl-4-CF3)]L[NMeAib]L[NMedβ3hAla][NMeL]))	> 500 nM	19 nM
CC[C@H](C)[C@@H]1NC(=O)[C@H](CC(C)C)N(C)C(=O)C[C@@H](C(=O)N(C)C)N(C)C(=O)[C@H]([C@@H](C)CC)N(C)C(=O)C2(CCCC2)NC(=O)[C@@H]2CCCN2C(=O)[C@H](CCc2cc(F)c(C(F)(F)F)c(F)c2)NC(=O)CN(C)C(=O)[C@H](Cc2ccc(C)cc2)N(C)C(=O)[C@@H]2CCN2C(=O)[C@H](C)N(C)C1=O [Compound 1080] ([NMeL]I[NMeA][Aze][NMePhe(4-Me)][Sar][hPhe(3,5-F2-4-CF3)]P[Ac5c][NMeI][NMeD]-NMe2; lactam N-11)	≤ 20 nM	1 nM
CC[C@H](C)[C@@H]1NC(=O)[C@H](C)N(C)C(=O)C[C@@H](C)NC(=O)[C@H](C2CCCC2)N(C)C(=O)C2(CCCC2)NC(=O)[C@@H]2CCCN2C(=O)[C@H](CCc2ccc(C(F)(F)F)c(Cl)c2)NC(=O)CN(C)C(=O)[C@H](Cc2cccc(C)c2)N(C)C(=O)[C@@H]2CCCN2C(=O)CN(C)C1=O [Compound 1083] (cyclo([Ac5c][NMeGly(cPent)][d(β3hA)][NMeA]I[Sar]P[NMePhe(3-Me)][Sar][hPhe(3-Cl-4-CF3)]P))	> 500 nM	19 nM
CC[C@H](C)[C@@H]1NC(=O)[C@H](CC(C)C)N(C)C(=O)C[C@@H](C)N(C)C(=O)[C@H](C(C)C)NC(=O)C(C)(C)N(C)C(=O)[C@H](CC(C)C)NC(=O)[C@H](CCc2ccc(C(F)(F)F)c(F)c2)NC(=O)CN(C)C(=O)[C@H](Cc2ccc(Cl)cc2)N(C)C(=O)CN(C)C(=O)CN(C)C1=O [Compound 1084] (cyclo(I[Sar][Sar][NMePhe(4-Cl)][Sar][hPhe(3-F,4-CF3)]L[NMeAib]V[NMedβ3hAla][NMeL]))	> 500 nM	53 nM
CC[C@H](C)[C@@H]1NC(=O)[C@H](CC(C)C)N(C)C(=O)C[C@@H](C(=O)N2CCCCC2)N(C)C(=O)[C@H](C2CCCCC2)N(C)C(=O)C2(CCCC2)NC(=O)[C@H](Cc2cncc(C)c2)N(C)C(=O)[C@H](CCc2ccc(C(F)(F)F)c(Cl)c2)NC(=O)CN(C)C(=O)[C@H](CC2CCCCC2)N(C)C(=O)CN(C)C(=O)CN(C)C1=O [Compound 1087] ([NMeL]I[Sar][Sar][NMeCha][Sar][hPhe(3-Cl-4-CF3)][X20][Ac5c][NMeChg][NMeD]-Piperidide; lactam N-11)	> 500 nM	15 nM
CC[C@H](C)[C@@H]1NC(=O)[C@H](CC(C)C)N(C)C(=O)C[C@@H](C(=O)N2CCCC2)N(C)C(=O)[C@H](C2CCCC2)N(C)C(=O)C2(CCCC2)NC(=O)[C@@H]2CCCN2C(=O)[C@H](CCc2ccc(C(F)(F)F)c(F)c2)NC(=O)CN(C)C(=O)[C@H](CC2CCCCC2)N(C)C(=O)[C@@H]2CCN2C(=O)[C@H](C)N(C)C1=O [Compound 1091] ([NMeL]I[NMeA][Aze][NMeCha][Sar][hPhe(3-F,4-CF3)]P[Ac5c][NMeGly(cPent)][NMeD]-Pyrrolidide; lactam N-11)	≤ 20 nM	1 nM
CC[C@H](C)[C@@H]1NC(=O)[C@H](CC(C)C)N(C)C(=O)C[C@H]2CCCCN2C(=O)[C@H](CC(C)C)NC(=O)C(C)(C)N(C)C(=O)[C@H](CC(C)C)NC(=O)[C@H](CCc2ccc(C(F)(F)F)c(F)c2)NC(=O)CN(C)C(=O)[C@H](CC2CCCCC2)N(C)C(=O)CN(C)C(=O)CN(C)C1=O [Compound 1095] (cyclo(I[Sar][Sar][NMeCha][Sar][hPhe(3-F,4-CF3)]L[NMeAib]L[dβ3hPip][NMeL]))	> 500 nM	46 nM
CC[C@H](C)[C@@H]1NC(=O)[C@H](C)N(C)C(=O)C[C@@H](C)NC(=O)[C@H](C(C)C)N(C)C(=O)[C@H](Cc2ccccc2)N(C)C(=O)[C@H](CC(C)C)N(C)C(=O)[C@H](CCc2ccc(C(F)(F)F)c(F)c2)NC(=O)CN(C)C(=O)[C@H](Cc2ccc(Cl)cc2)N(C)C(=O)CN(C)C(=O)CN(C)C1=O [Compound 1105] (cyclo(I[Sar][Sar][NMePhe(4-Cl)][Sar][hPhe(3-F,4-CF3)][NMeL][NMeF][NMeV][d(β3hA)][NMeA]))	> 500 nM	21 nM
CCCCC[C@H]1C(=O)N[C@@H]([C@@H](C)CC)C(=O)N[C@@H](C)C(=O)N2CC[C@H]2C(=O)N(C)[C@@H](CC2CCCCC2)C(=O)N(C)CC(=O)N[C@@H](CCc2ccc(C(F)(F)F)c(F)c2)C(=O)N2CCC[C@H]2C(=O)NC2(CCCC2)C(=O)N(C)[C@@H](C2CCCC2)C(=O)N(C)[C@H](C(=O)N(C)C)CC(=O)N1C [Compound 1117] ([NMeAhp(2)]IA[Aze][NMeCha][Sar][hPhe(3-F,4-CF3)]P[Ac5c][NMeGly(cPent)][NMeD]-NMe2; lactam N-11)	≤ 20 nM	2.2 nM
CC[C@H](C)[C@@H]1NC(=O)[C@H](CC(C)C)N(C)C(=O)C[C@@H](C(=O)N(C)C)N(C)C(=O)[C@H]([C@@H](C)CC)N(C)C(=O)C2(CCCC2)NC(=O)[C@@H]2CCCN2C(=O)[C@H](CCc2ccc(C(F)(F)F)c(Cl)c2)NC(=O)CN(CC)C(=O)[C@H](Cc2ccc(C)cc2)N(C)C(=O)[C@@H]2CCN2C(=O)[C@H](C)N(C)C1=O [Compound 1120] ([NMeL]I[NMeA][Aze][NMePhe(4-Me)][NEtG][hPhe(3-Cl-4-CF3)]P[Ac5c][NMeI][NMeD]-NMe2; lactam N-11)	≤ 20 nM	2.5 nM
CC[C@H](C)[C@@H]1NC(=O)[C@H](CC(C)C)N(C)C(=O)C[C@@H](C(=O)N2CCCCC2)N(C)C(=O)[C@H](CCCCC(F)F)N(C)C(=O)C2(CCCC2)NC(=O)[C@@H]2CCCN2C(=O)[C@H](CCc2ccc(C(F)(F)F)c(Cl)c2)NC(=O)CN(C)C(=O)[C@H](CC2CCCCC2)N(C)C(=O)[C@@H]2CCN2C(=O)[C@H](C)N(C)C1=O [Compound 1123] ([NMeL]I[NMeA][Aze][NMeCha][Sar][hPhe(3-Cl-4-CF3)]P[Ac5c][NMeNle(6-CHF2)][NMeD]-Piperidide; lactam N-11)	> 500 nM	180 nM
CC[C@H](C)[C@@H]1NC(=O)[C@H](C)N(C)C(=O)C[C@@H](C(=O)N2CCCCC2)N(C)C(=O)[C@H](C(C)C)N(C)C(=O)C2(CCCC2)NC(=O)[C@H](Cc2ccccc2)NC(=O)[C@H](CCc2ccc(C(F)(F)F)c(Cl)c2)NC(=O)CN(C)C(=O)[C@H](CC2CCCCC2)N(C)C(=O)CN(C)C(=O)CN(C)C1=O [Compound 1125] ([NMeA]I[Sar][Sar][NMeCha][Sar][hPhe(3-Cl-4-CF3)]F[Ac5c][NMeV][NMeD]-Piperidide; lactam N-11)	> 500 nM	2.5 nM
CCC[C@H]1C(=O)N[C@@H]([C@@H](C)CC)C(=O)N(C)[C@@H](C)C(=O)N2CC[C@H]2C(=O)N(C)[C@@H](CC2CCCCC2)C(=O)N(C)CC(=O)N[C@@H](CCc2ccc(C(F)(F)F)c(Cl)c2)C(=O)N2CCC[C@H]2C(=O)NC2(CCCC2)C(=O)N(C)[C@@H]([C@@H](C)CC)C(=O)N(C)[C@H](C(=O)N2CCCCC2)CC(=O)N1C [Compound 1132] ([NMeNva]I[NMeA][Aze][NMeCha][Sar][hPhe(3-Cl-4-CF3)]P[Ac5c][NMeI][NMeD]-Piperidide; lactam N-11)	≤ 20 nM	1.3 nM
CC(C)C[C@@H]1NC(=O)C(C)(C)N(C)C(=O)[C@H](CC(C)C)NC(=O)[C@H](CCc2ccc(C(F)(F)F)c(F)c2)NC(=O)CN(C)C(=O)[C@H](Cc2ccc(Cl)cc2)N(C)C(=O)CN(C)C(=O)CN(C)C(=O)[C@H](C2CCCCC2)NC(=O)[C@H](CC(C)C)N(C)C(=O)C[C@@H](C)N(C)C1=O [Compound 1133] (cyclo([Chg][Sar][Sar][NMePhe(4-Cl)][Sar][hPhe(3-F,4-CF3)]L[NMeAib]L[NMedβ3hAla][NMeL]))	> 500 nM	56 nM
CCO[C@@H]1C[C@H]2C(=O)NC3(CCCC3)C(=O)N(C)[C@@H](C3CCCCC3)C(=O)N(C)[C@H](C(=O)N3CCCC3)CC(=O)N(C)[C@@H](C3CCC3)C(=O)N[C@@H]([C@@H](C)CC)C(=O)N(C)CC(=O)N(C)CC(=O)N(C)[C@@H](CC3CCCCC3)C(=O)N(C)CC(=O)N[C@@H](CCc3cc(F)c(C(F)(F)F)c(F)c3)C(=O)N2C1 [Compound 1144] ([NMeGly(cBu)]I[Sar][Sar][NMeCha][Sar][hPhe(3,5-F2-4-CF3)][Hyp](Et)[Ac5c][NMeChg][NMeD]-Pyrrolidide; lactam N-11)	≤ 20 nM	0.49 nM
